Reference: patent EP3263567A1, “CARBOXAMIDE-SUBSTITUTED PYRAZOLES AND TRI(HETERO)ARYL-PYRAZOLES FOR USE IN METHODS OF TREATING AND / OR PREVENTING CARDIOVASCULAR DISEASES AND / OR COMORBIDITIES THEREOF” (AiCuris Anti-infective Cures GmbH, priority 2016, dated 2018)

Target: T1, human HCN4 currents (Homo sapiens, UniProt Q9Y3Q4)
T1 construct: CHO cells transiently expressing the HCN4 channel; expressed in transfected cells; host or cells: CHO (ATCC CCL-61), transiently transfected
T1 sequence (Q9Y3Q4 1-1203): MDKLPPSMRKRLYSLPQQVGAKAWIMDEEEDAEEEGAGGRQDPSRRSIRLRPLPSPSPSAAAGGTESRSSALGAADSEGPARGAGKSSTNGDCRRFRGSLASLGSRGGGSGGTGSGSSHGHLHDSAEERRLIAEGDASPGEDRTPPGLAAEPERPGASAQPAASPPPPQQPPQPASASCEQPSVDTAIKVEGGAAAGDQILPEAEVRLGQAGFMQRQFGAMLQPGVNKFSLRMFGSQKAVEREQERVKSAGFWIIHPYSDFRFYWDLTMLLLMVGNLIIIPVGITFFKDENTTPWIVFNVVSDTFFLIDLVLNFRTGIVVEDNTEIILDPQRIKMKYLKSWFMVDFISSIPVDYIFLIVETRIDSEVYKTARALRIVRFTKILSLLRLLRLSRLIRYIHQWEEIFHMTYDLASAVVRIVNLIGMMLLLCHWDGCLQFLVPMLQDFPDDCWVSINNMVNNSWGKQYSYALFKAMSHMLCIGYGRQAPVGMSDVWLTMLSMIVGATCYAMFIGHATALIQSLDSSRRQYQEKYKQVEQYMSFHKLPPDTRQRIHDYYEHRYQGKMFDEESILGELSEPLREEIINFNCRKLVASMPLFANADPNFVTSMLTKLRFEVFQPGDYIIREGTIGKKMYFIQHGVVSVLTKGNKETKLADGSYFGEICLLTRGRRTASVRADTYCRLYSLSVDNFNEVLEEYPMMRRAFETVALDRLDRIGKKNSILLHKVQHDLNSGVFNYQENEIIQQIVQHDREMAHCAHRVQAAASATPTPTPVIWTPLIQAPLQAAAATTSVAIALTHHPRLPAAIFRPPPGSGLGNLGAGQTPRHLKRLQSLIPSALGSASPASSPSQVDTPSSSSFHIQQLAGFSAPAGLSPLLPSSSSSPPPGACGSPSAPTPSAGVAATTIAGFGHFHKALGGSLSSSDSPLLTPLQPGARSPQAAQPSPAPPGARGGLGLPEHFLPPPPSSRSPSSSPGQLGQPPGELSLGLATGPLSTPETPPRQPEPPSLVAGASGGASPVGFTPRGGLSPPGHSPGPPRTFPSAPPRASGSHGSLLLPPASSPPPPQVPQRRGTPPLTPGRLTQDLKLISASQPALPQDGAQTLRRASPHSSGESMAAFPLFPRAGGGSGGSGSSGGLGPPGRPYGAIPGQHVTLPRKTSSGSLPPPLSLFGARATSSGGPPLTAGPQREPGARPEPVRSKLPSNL
Experiment: Whole-cell patch-clamp, HCN4 steady state currents in transiently transfected CHO cells
Format: cell-based
Conditions: CHO cells transiently expressing HCN4, steady state current at -120 mV, n=3; read-out: IC50 (inhibition of HCN4 currents)
Description: The following six compounds in accordance with the invention: • Compound A: [drawing 81] i.e. 4-[5-[3-Chloro-5-(trifluoromethoxy) phenyl]-1-(pyridin-3-yl)-1H-pyrazol-3-yl]-5,6-dihydro-7H-pyrrolo[3,4-d]pyrimidin-7-one, • Compound B: [drawing 82] i.e. 4-[5-[3-Chloro-5-(trifluoromethoxy) phenyl]-1-(pyridin-3-yl)-1H-pyrazol-3-yl]-2,3-dihydro-1H-pyrrolo[3,4-c] pyridin-1-one, • Compound C: [drawing 83] i.e. 4-[5-[3-Chloro-5-(trifluoromethoxy) phenyl]-1-(pyridin-3-yl)-1H-pyrazol-3-yl]-5,6-dihydro-2-methyl-7H-pyrrolo[3, 4-d] pyrimidin-7-one, • Compound D: [drawing 84] i.e. 3-Amino-4-[5-[3-chloro-5-(trifluoromethoxy) phenyl]-1-(pyridin-3-yl)-1H-pyrazol-3-yl-carbonyl]-1,5-dihydro-2H-pyrrol-2-one, • Compound E: [drawing 85] i.e. 1-[[5-[3-Chloro-5-(trifluoromethoxy) phenyl]-1-(pyridin-3-yl)-1H-pyrazol-3-yl]carbonyl]-imidazolidin-4-one, • Compound F: [drawing 86] i.e. 4-[5-[3-Chloro-5-(trifluoromethoxy) phenyl]-1-(3-cyano-4-fluoro-phenyl)-1H-pyrazol-3-yl]-5,6-dihydro-7H-pyrrolo[3,4-d]pyrimidin-7-one, were tested on their effects on human HCN4 currents recorded from transiently transfected CHO cells, in direct comparison to the reference compounds described below: • Ivabradine: [drawing 87] i.e. ((S)-3-{3-[([3,4-Dimethoxy-bicyclo [4.2.0]octa-1,3,5-trien-7-yl]methyl)methylamino]propyl}-1,3,4,5-tetrahydro-7,8-dimethoxy-2H-3-benzazepin-2-on), • Compound X: [drawing 88] i.e. 1-[[1-(3-Chloro-4-fluorophenyl)-5-(3-chloro-5-fluorophenyl)-1 H-pyrazol-3-yl]carbonyl]-imidazolidin-4-one, • Compound Y: [drawing 89] i.e. N-(2-Amino-2-oxoethyl)-1-(3-chloro-4-fluorophenyl)-5-(3-chloro-5-fluorophenyl)-1H-pyrazole-3-carboxamide.
The pyrazole compounds X and Y as depicted above, and having structural similarities to the compounds of general formula (I) of the invention, were also tested to investigate whether the pure If current inhibitory effect of the compounds of the invention also extend to structurally closely related compounds.
Dependent on their solubility in the assay buffer, the compounds were tested first at one concentration of 10 µM (compound A, compound Y, compound X, compound B, compound E, compound F and ivabradine) or 1 µM for (compound C and D). If the current blocking of HCN4 at this concentration was higher than 50% the compounds were tested again at five concentrations of a half-logarithmic dilution series starting with either 10 µM or 1 µM as mentioned above (meaning 0.1 µM, 0.3 µM, 1 µM, 3 µM, and 10 µM or 0.01 µM, 0.03 µM 0.1 µM, 0.3 µM and 1 µM).
Test system: CHO cells transiently expressing the HCN4 channel; NCBI Reference Sequence: NP005468.1 (HCN4 channel); Source CHO: ATCC, CCL-61 LGC Standards GmbH, Wesel, Germany were used.
In 35 mm culture dishes CHO cells were seeded at a density allowing single cells to be recorded on the dish holder of the microscope and continuously perfused (at approximately 1 mL/min) with the bath solution described above. All solutions applied to cells including the pipette solution were maintained at room temperature (19 °C - 30 °C). After formation of a Gigaohm seal between the patch electrodes and individual cells (pipette resistance range: 2.0 MΩ - 7.0 MΩ; seal resistance range: > 1 GΩ) the cell membrane across the pipette tip was ruptured to assure electrical access to the cell interior (whole-cell patch-configuration). As soon as a stable seal was established, steady state currents were measured upon the hyperpolarization to -120 mV (2000 ms) from a holding potential of -40 mV. This voltage protocol (as shown in the scheme below) did run 5 times for control conditions and at least ten times for each test concentration. Pulse intervals were 20 s (0.05 Hz). If current amplitude was judged to be too low for measurement, another cell was recorded.
Once control recordings have been accomplished, cells were continuously perfused with bath solution containing the tested compounds as detailed above, 0.1 % DMSO or 100 µM ZD7288. […]

SMILES: O=C1NCc2c1ncnc2-c1cc(-c2cc(Cl)cc(OC(F)(F)F)c2)n(-c2cccnc2)n1 [Compound A, 4-[5-[3-Chloro-5-(trifluoromethoxy)phenyl]-1-(pyridin-3-yl)-1H-pyrazol-3-yl]-5,6-dihydro-7H-pyrrolo[3,4-d]pyrimidin-7-one]
- IC50: 30 to 580 nM
